Test systems include OVCAR-3; TK-10; HOP-92; BT-549; HCT-116; SW-620; SF-268; RPMI-8226; SK-MEL-28; NCI-H23; HT-29; NCI-H460; M14; UO-31; U-251; OVCAR-8; UACC-257; SF-295; Malme-3M; HCT-15.
Experiment in all cases: growth of human tumour cells (NCI), 48 h

Data on 4 compounds can be found in ChEMBL document CHEMBL1201862, “PubChem BioAssay data set” (2004).

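Compound exposure: 48 hours, 5 concentrations, 96-well plates. The concentration for 50% growth inhibition is given as GI50.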 Calls of active or inactive are those of the source. No stated cut-off is given here; in the data, active = GI50 up to about 1.1 µM and inactive = higher.

Turning to `CN(C)CCCN1CCC2(CCC(C(C)(C)C)CC2)CC1`, the GI50 in the assay on OVCAR-3 is 3.1 µM (inactive); with TK-10 it was 1.66 µM (inactive); with HOP-92, 3.18 µM (inactive); in the assay with BT-549 it was 11.3 µM (inactive); in the assay with HCT-116, 1.56 µM (inactive); in the assay with SW-620, 2.4 µM (inactive). In addition, the GI50 in the assay on SF-268 was 2.32 µM (inactive); in the assay with RPMI-8226 it was 1.25 µM (inactive); with SK-MEL-28, 1.77 µM (inactive); with NCI-H23, 7.48 µM (inactive); in the assay with HT-29, 0.409 µM (active); with NCI-H460, 0.8 µM (active). For the same compound, the GI50 was 1.85 µM (inactive) with M14; 1.56 µM (inactive) in the assay with UO-31; 1.76 µM (inactive) in the assay with U-251; 3.8 µM (inactive) in the assay with OVCAR-8; 1.41 µM (inactive) in the assay with UACC-257; 2.03 µM (inactive) in the assay with SF-295. Also, the results for the GI50 with Malme-3M and in the assay with HCT-15 were 1.89 µM (inactive) and 2.22 µM, respectively.
In the case of `O=C(O)c1ccc(NCc2nc3cc4ccccc4cc3[nH]2)cc1`, the GI50 with OVCAR-3, in the assay on TK-10, in the assay with HOP-92, in the assay with BT-549, in the assay on HCT-116 and in the assay on SW-620 was > 100 µM (inactive) throughout. Besides, the GI50 is > 100 µM (inactive) in the assay with SF-268; > 100 µM (inactive) in the assay on RPMI-8226; 5.21 µM (inactive) with SK-MEL-28; > 100 µM (inactive) with NCI-H23; > 100 µM (inactive) in the assay on HT-29; > 100 µM (inactive) with NCI-H460. The GI50 in the assay with M14 is > 100 µM (inactive); in the assay with UO-31, > 100 µM (inactive); with U-251 it was > 100 µM (inactive); with OVCAR-8 it was > 100 µM (inactive); in the assay on UACC-257 it was 2.63 µM (inactive); in the assay with SF-295, > 100 µM (inactive). Besides, the values for the GI50 in the assay with Malme-3M and in the assay with HCT-15 were 0.0462 µM (active) and 26.7 µM, respectively.
On to `Cc1nc2c(=O)n3c4c(cccc4c2o1)CCC3`, for which the GI50 with OVCAR-3 was > 100 µM (inactive); in the assay on TK-10 it was > 100 µM (inactive); in the assay with HOP-92, > 100 µM (inactive); in the assay with BT-549, > 100 µM (inactive); with HCT-116 it was 43.5 µM (inactive); with SW-620 it was > 100 µM (inactive). For the same compound, the GI50 was > 100 µM (inactive) with SF-268; > 100 µM (inactive) with RPMI-8226; > 100 µM (inactive) with SK-MEL-28; > 100 µM (inactive) with NCI-H23; 76 µM (inactive) in the assay with HT-29; 78 µM (inactive) in the assay with NCI-H460. In addition, the GI50 was > 100 µM (inactive) with M14; > 100 µM (inactive) with UO-31; 96.8 µM (inactive) in the assay on U-251; > 100 µM (inactive) with OVCAR-8; > 100 µM (inactive) with UACC-257; > 100 µM (inactive) in the assay with SF-295. Besides, the results for the GI50 in the assay on Malme-3M and in the assay on HCT-15 were > 100 µM (inactive) and 49.4 µM, respectively.
Turning to `O=C(O)/C=C\C(=O)Nc1ccc2c(c1)C(=O)c1cc(F)ccc1-2`, the GI50 in the assay on OVCAR-3, in the assay with TK-10, in the assay on HOP-92, with BT-549, with HCT-116 and in the assay with SW-620 was > 100 µM (inactive) each time. For the same compound, the GI50 with SF-268, with RPMI-8226, with SK-MEL-28, with NCI-H23, in the assay on HT-29 and in the assay on NCI-H460 was > 100 µM (inactive) throughout. Besides, the GI50 is > 100 µM (inactive) in the assay on M14; > 100 µM (inactive) in the assay on UO-31; 99.8 µM (inactive) in the assay with U-251; > 100 µM (inactive) in the assay with OVCAR-8; > 100 µM (inactive) with UACC-257; > 100 µM (inactive) in the assay with SF-295. The GI50 is > 100 µM (inactive) in the assay with Malme-3M and > 100 µM in the assay on HCT-15.
